Where “and” joins values, the source holds several entries; their conditions need not be identical. Equal values may be shown once.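 96-well plates; 48 h exposure; 5 concentrations. Endpoints by linear interpolation between flanking doses. Not reached: highest tested concentration assigned. GI50 is the concentration that inhibits growth by half. At the TGI there is no net growth.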
Experiments:
Test in all cases: NCI anticancer screen, dose series, 48 h
DU-145 prostate = tested on: DU-145 prostate
EKVX NSCLC = tested on: EKVX NSCLC
LOX IMVI melanoma = tested on: LOX IMVI melanoma
MOLT-4 leukemia = tested on: MOLT-4 leukemia
OVCAR-3 ovarian = tested on: OVCAR-3 ovarian
OVCAR-8 ovarian = tested on: OVCAR-8 ovarian
SK-MEL-28 melanoma = tested on: SK-MEL-28 melanoma
TK-10 renal = tested on: TK-10 renal
U251 CNS = tested on: U251 CNS
UACC-62 melanoma = tested on: UACC-62 melanoma

Compound | TGI (DU-145 prostate) | TGI (EKVX NSCLC) | TGI (LOX IMVI melanoma) | TGI (MOLT-4 leukemia) | TGI (OVCAR-3 ovarian) | TGI (OVCAR-8 ovarian) | TGI (SK-MEL-28 melanoma) | TGI (TK-10 renal) | TGI (U251 CNS) | TGI (UACC-62 melanoma) | GI50 (DU-145 prostate) | GI50 (EKVX NSCLC) | GI50 (LOX IMVI melanoma) | GI50 (MOLT-4 leukemia) | GI50 (OVCAR-3 ovarian) | GI50 (OVCAR-8 ovarian) | GI50 (SK-MEL-28 melanoma) | GI50 (TK-10 renal) | GI50 (U251 CNS) | GI50 (UACC-62 melanoma)
c1c[nH]c(CN2CCN(Cc3ncc[nH]3)CC2)n1 | > 100 µM | > 100 µM | > 100 µM | > 100 µM | > 100 µM | > 100 µM | > 100 µM | > 100 µM | > 100 µM | > 100 µM | – | – | – | – | – | – | – | – | – | –
O=C(c1ccco1)c1c(C(F)(F)F)n([O-])c2cc(Cl)c(Cl)cc2[n+]1=O | 2.03 µM | 1.86 µM | 0.52 µM | 1.41 µM | 0.316 µM | 6.6 µM | 6.45 µM | 1.73 µM | 1.43 µM | 1.49 µM | 0.787 µM | 0.887 µM | 0.169 µM | 0.0591 µM | 0.0798 µM | 1.03 µM | 2.97 µM | 0.943 µM | 0.705 µM | 0.705 µM
Nc1nc(-c2ccccn2)c(-c2ccc3ncccc3n2)s1 | > 25 µM | > 25 µM | > 25 µM | > 25 µM | > 25 µM | > 25 µM | > 25 µM | > 25 µM | > 25 µM | > 25 µM | > 25 µM | > 25 µM | > 25 µM | > 25 µM | > 25 µM | > 25 µM | > 25 µM | > 25 µM | > 25 µM | > 25 µM
NC1=Nc2cc(OCCCCN3Cc4ccccc4C3)c(OCC3CC3)cc2C12CCCC2 | 11.4 µM | 14.5 µM | 3.09 µM | 5.04 µM | 3.16 µM | 4.02 µM | – | 3.45 µM | 3.11 µM | 3.11 µM | 3.24 µM | 2.77 µM | 1.69 µM | 1.88 µM | 1.49 µM | 1.8 µM | – | 1.75 µM | 1.53 µM | 1.69 µM
O=C(CNC(=O)c1cccc2ccccc12)Nc1ccccc1Oc1ccc(O)cc1 | > 25 µM | > 25 µM | > 25 µM | > 25 µM | > 25 µM | > 25 µM | > 25 µM | > 25 µM | > 25 µM | > 25 µM | 1.15 µM | 1.17 µM | 1.72 µM | 1.21 µM | 0.744 µM | 1.31 µM | > 25 µM | 16.9 µM | 1.41 µM | 1.17 µM
CCCCCCCCCCCCNC(=O)N[C@H](C(=O)N[C@H]1/C=C/OCCNC(=O)/C=C/[C@H](C(C)C)NC1=O)C(C)C | > 100 µM | > 100 µM | 36.4 µM | > 100 µM | > 78.7 µM | 34.1 µM | 26.2 µM | > 76.4 µM | > 55.2 µM | 39 µM | 14 µM | 36.6 µM | 9.4 µM | 3.26 µM | 0.568 µM | 13.7 µM | 3.28 µM | 10.3 µM | 2.15 µM | 3.1 µM
COC(=O)[C@@H](C)C[C@H](Cc1ccccc1)NC(=O)c1nc([C@@H](C[C@H](C(C)C)N(C)C(=O)[C@@H](NC(=O)[C@H]2CC(=O)CCN2C)C(C)C)OC(C)=O)sc1C(C)C | > 5.55 µM | > 16.7 µM | > 16.7 µM | > 16.7 µM | 0.62 µM | > 16.7 µM | > 16.7 µM | > 16.7 µM | > 10.5 µM | > 16.7 µM | 0.115 µM | 0.953 µM | 0.11 µM | 0.532 µM | 0.0542 µM | 0.48 µM | 0.524 µM | 1.43 µM | 0.352 µM | 0.0722 µM
COc1cc(-c2nn(-c3cccc(NC(=O)NCCNC(=O)c4ccccc4)c3)cc2-c2ccncc2)ccc1Cl | > 100 µM | > 100 µM | > 100 µM | > 100 µM | > 100 µM | 41.7 µM | > 100 µM | 63.7 µM | > 100 µM | 31.2 µM | 4.72 µM | 3.76 µM | 2.46 µM | 2.18 µM | 2.93 µM | 0.576 µM | 3.04 µM | 6.09 µM | 2.62 µM | 3.08 µM
O=c1c2cc(F)ccc2sc2c(NCCCNCCO)nc3ccc(F)cc3c12 | 3.19 µM | 3.07 µM | 3.06 µM | – | 3.38 µM | 4.75 µM | 3.25 µM | 3.7 µM | – | 3.25 µM | 1.76 µM | 1.52 µM | 1.57 µM | – | 1.78 µM | 2.09 µM | 1.78 µM | 1.9 µM | – | 1.72 µM
O=C(/C=C/c1ccccc1)c1ccccn1 | 24.8 µM and 40.5 µM | 45.5 µM and 41 µM | 23.9 µM and 34.8 µM | 61.4 µM and 72.6 µM | 26.8 µM and 43.3 µM | 34.6 µM and > 100 µM | 40.7 µM and 81.5 µM | 31 µM and 36.9 µM | 30.5 µM and 35.9 µM | 36.8 µM and 41.4 µM | – | – | – | – | – | – | – | – | – | –
CC(C)CC(=O)O[C@H]1C(=O)O[C@@H]2C[C@H]3[C@H](C)C(=O)C(O[C@@H]4O[C@H](CO)[C@@H](O)[C@H](O)[C@H]4O)=C[C@]3(C)[C@H]3[C@@H](O)[C@H](O)[C@]4(C(=O)O)OC[C@]32[C@@H]14 | > 100 µM | > 100 µM | > 100 µM | > 100 µM | > 100 µM | > 100 µM | > 100 µM | > 100 µM | > 100 µM | > 100 µM | > 100 µM | > 100 µM | 38.7 µM | 18.9 µM | 36.4 µM | > 100 µM | 25.2 µM | – | 31.7 µM | –
Nc1nc(N)c2nc(CNc3ccc(C(=O)NC(CCC(=O)O)C(=O)O)cc3)cnc2n1 (configuration not stated) | > 100 µM | > 100 µM | > 100 µM | > 100 µM | > 100 µM | > 100 µM | > 100 µM | > 100 µM | > 100 µM | > 100 µM | < 0.01 µM | 4.69 µM | < 0.01 µM | 0.0375 µM and < 0.0131 µM | 0.0695 µM and 0.0295 µM | < 0.01 µM | 0.941 µM | 0.0736 µM | 0.0468 µM and < 0.0107 µM | 0.0274 µM and < 0.01 µM
CC[C@@]12CC(C(=O)OC)=C3Nc4ccccc4[C@@]34CCN(C[C@H]3O[C@H]31)[C@@H]24 | > 100 µM | > 100 µM | > 100 µM | > 100 µM | > 100 µM | > 100 µM | > 100 µM | > 100 µM | > 100 µM | > 100 µM | > 100 µM | 40.2 µM | 34.8 µM | 27.9 µM | 78.5 µM | > 100 µM | 86.2 µM | > 100 µM | 43 µM | 17.7 µM

Source: PubChem BioAssay (NCI)
